Test results reported in US20210275657A1, “NEOANTIGENS AND USES THEREOF” (BioNTech US Inc., priority 2018, published 2021).
pIC50, pKd: −log10 of the molar value. Where no end group is shown, it is not given here.

Legend:
[1] = ovarian carcinoma patients, poly-ICLC with NYESO-1 peptide vaccine (in addition to Montanide), phase 1 study; cited from earlier work
[2] = biological target: indicated HLA alleles; test: Affinity of GATA3 neoORF neoepitopes for the indicated HLA alleles (Example 9, Table 4); format: binding, human; conditions: read-out: Observed MHC affinity
Protocol: (§1) Multiple peptides containing the neoepitopes in Table 4 below were expressed or loaded onto antigen presenting cells (APCs). Mass spectrometry was then performed and the affinity of the neoepitopes for the indicated HLA alleles and stability of the neoepitopes with the HLA alleles was determined.

[3] = tested on: indicated HLA alleles; test: Stability of GATA3 neoORF neoepitopes with the HLA alleles (Example 9, Table 4); format: binding, human
Protocol: as §1

[4] = biological target: T1, HLA-A02:01 (Homo sapiens, UniProt P04439, D140Y/D185E/D98H/E176V/E277Q/G131W/G231S/I119V/I121R/I166T/I218V/L300P/L318F/N151K/N90K/P208A/P217A/Q86G/Q94H/R138H/R169H/T345S); test: Stability measurements, pMHC-I dissociation with 125I light chain (Example 20); format: binding
Protocol: (§2) To measure the binding stability of peptides to Class I MHC, synthetic genes encoding biotinylated MHC-I heavy and light chains are expressed in E. coli and purified from inclusion bodies using standard methods. […] These reactions were carried out in streptavidin coated microplates to bind the biotinylated MHC-I heavy chains to the surface and allow measurement of radiolabeled light chain to monitor complex formation. Dissociation was initiated by addition of higher concentrations of unlabeled light-chain and incubation at 37° C. Stability was defined as the length of time in hours it takes for half of the complexes to dissociate, as measured by scintillation counts. Duplicate measurements were performed. The average of the two measurements was taken as the stability.

[5] = biological target: T1, HLA-A02:01; test: Affinity measurements, competition with radiolabeled peptide (Example 20); format: binding
[6] = biological target: T2, indicated HLA alleles (Homo sapiens, UniProt P04439); test: Affinity of mutant BTK neopeptides for indicated HLA alleles; format: binding
Protocol: (§3) Multiple peptides containing neoepitopes in the table below were either expressed or loaded onto antigen presenting cells. Mass spectrometry was then performed and the affinity of the neoepitopes for indicated HLA alleles were determined, and the stability of the neoepitopes with the HLA alleles were determined.

[7] = biological target: indicated HLA alleles; test: as above; format: binding, human
Protocol: as §3

[8] = biological target: T2, indicated HLA alleles; test: Stability of mutant BTK neopeptides with the HLA alleles; format: binding; conditions: BTK, C481S; HLA A03.01
Protocol: as §3

[9] = tested on: indicated HLA alleles; test: as above; format: binding, human
Protocol: as §3

[10] = biological target: T2, indicated HLA alleles; test: Affinity of GATA3 neoORF neoepitopes for the indicated HLA alleles (Example 9, Table 4); format: binding
Protocol: as §1

[11] = biological target: T3, indicated HLA alleles (Homo sapiens, UniProt P01889); test: as above; format: binding
Protocol: as §1

[12] = biological target: T4, HLA-B07:02 (Homo sapiens, UniProt P01889); test: Affinity measurements, competition with radiolabeled peptide (Example 20); format: binding
[13] = biological target: T4, HLA-B07:02; test: Stability measurements, pMHC-I dissociation with 125I light chain (Example 20); format: binding
Protocol: as §2

[14] = biological target: T4, HLA-B07:02; test: Detection of GATA3 neoORF peptides by mass spectrometry (Example 8); format: cell-based; conditions: 293T cells transduced with GATA3 neoORF lentiviral vector, expressing HLA-B07:02; eluted peptides, MS/MS
[15] = biological target: T3, indicated HLA alleles; test: Affinity of mutant BTK neopeptides for indicated HLA alleles; format: binding
Protocol: as §3

For poly-ICLC, the “patients showing induction of CD4+ and CD8+ T cell and antibody responses to the peptide” value [1] is listed as over 90%.
In the case of TLQRSSLWCL, the pKd ([2]; Allele A02.01) was 6.93, the “Observed MHC stability” value ([3]; Allele A02.01) was 0.5 h and the “Experiment 1 half-life” value [4] was 0.5 h. For the same compound, the “Experiment 2 half-life” value [4] was 0.5 h, the Average half-life ([4]; average of experiments 1 and 2) was 0.5 h and the pIC50 [5] was 6.55.
Compound CSCC[C@H](N)C(=O)N[C@@H](C)C(=O)N[C@@H](CC(N)=O)C(=O)NCC(=O)N[C@@H](CO)C(=O)N[C@@H](CC(C)C)C(=O)N[C@@H](CC(C)C)C(=O)N[C@@H](CC(N)=O)C(=O)N[C@@H](Cc1ccc(O)cc1)C(=O)O has a pKd [6] of 7.45, a pKd ([7]; BTK, C481S, HLA A01.01) of 6.36 and a pKd ([7]; BTK, C481S, HLA A11.01) of 6.27. The “Stability (1/2 hr)” value [8] was 0.238 h and the “Stability (1/2 hr)” value ([9]; BTK, C481S, HLA A01.01) was 0.2164 h.
YMANGSLLNY showed a pKd [6] of 7.02, a pKd ([7]; BTK, C481S, HLA A01.01) of 7.88 and a pKd ([7]; BTK, C481S, HLA A11.01) of 6.01. The “Stability (1/2 hr)” value [8] was 0.2791 h and the “Stability (1/2 hr)” value ([9]; BTK, C481S, HLA A01.01) was 0.8662 h.
In the case of VLWTTPPLQH, the pKd [10] was 7.80, the pKd ([2]; Allele A11:01) was 5.34 and the “Observed MHC stability” value ([3]; Allele A03:01) was 0.3 h. The “Observed MHC stability” value ([3]; Allele A11:01) was 0 h.
For KPKRDGYMFL, the pKd [11] was 7.01, the “Observed MHC stability” value ([3]; Allele B07:02) was 3.3 h and the pIC50 [12] was 6.94. The “Experiment 1 half-life” value [13] was 3.3 h, the “Experiment 2 half-life” value [13] was 3.3 h and the Average half-life ([13]; average of experiments 1 and 2) was 3.3 h. For the same compound, the “detected by mass spectrometry” value [14] was “detected”.
CSCC[C@H](NC(=O)[C@H](CCC(=O)O)NC(=O)[C@H](CCCNC(=N)N)NC(=O)[C@H](CC(C)C)NC(=O)[C@H](Cc1ccc(O)cc1)NC(=O)[C@H](CC(N)=O)NC(=O)[C@H](CC(C)C)NC(=O)[C@H](CC(C)C)NC(=O)[C@@H](N)CO)C(=O)O gave a pKd [15] of 6.06, a pKd ([7]; BTK_C481S, HLA A02.01) of 7.17 and a pKd ([7]; BTK_C481S, HLA B08.01) of 6.02. The “Stability (1/2 hr)” value ([9]; BTK_C481S, HLA A02.01) was 3.044 h, the “Stability (1/2 hr)” value ([9]; BTK_C481S, HLA B07.02) was 0 h and the “Stability (1/2 hr)” value ([9]; BTK_C481S, HLA B08.01) was 0 h.
